According to patent US8853174B2, “Agent for preventing or ameliorating skin aging” (Kao Corporation, priority 2008, dated 2014):

System: Human skin fibroblasts
Assay: Measurement of contraction force generated by cells (fibroblast-embedded collagen gel culture system)
Format: cell-based
Settings: for enhancement in the contraction force generated by fibroblasts (in words): 3 μM; for Mean value of contraction force generated by cells: Test Example 1, human skin fibroblasts in collagen gel, final concentration 3 μM

Compound | enhancement in the contraction force generated by fibroblasts (in words) | Mean value of contraction force generated by cells
C/C=C(\C)C(=O)O[C@H]1[C@H](OC(C)=O)[C@]2(CO)[C@H](O)C[C@]3(C)C(=CC[C@@H]4[C@@]5(C)CC[C@H](O[C@@H]6O[C@H](C(=O)O)[C@@H](O[C@@H]7O[C@H](CO)[C@@H](O)[C@H](O)[C@H]7O)[C@H](O)[C@H]6O[C@@H]6O[C@H](CO)[C@@H](O)[C@H](O)[C@H]6O)[C@](C)(CO)[C@@H]5CC[C@]43C)[C@@H]2CC1(C)C [Escin Ia] | no enhancement | 0.0 dyne
C/C=C(/C)C(=O)O[C@H]1[C@H](OC(C)=O)[C@]2(CO)[C@H](O)C[C@]3(C)C(=CC[C@@H]4[C@@]5(C)CC[C@H](O[C@@H]6O[C@H](C(=O)O)[C@@H](O[C@@H]7O[C@H](CO)[C@@H](O)[C@H](O)[C@H]7O)[C@H](O)[C@H]6O[C@@H]6O[C@H](CO)[C@@H](O)[C@H](O)[C@H]6O)[C@](C)(CO)[C@@H]5CC[C@]43C)[C@@H]2CC1(C)C [Escin Ib] | no enhancement | 0.0 dyne
